Assays:
[1] = target: T1, mycobacterial polyprenyl synthase (RV2361c) (Mycobacterium tuberculosis, UniProt P9WFF7); assay: Test A: Inhibition of Mycobacterial Polyprenyl Synthase (RV2361c); format: biochemical; conditions: result in words, data only in FIG. 1/FIG. 2
T1 sequence (P9WFF7 1-296): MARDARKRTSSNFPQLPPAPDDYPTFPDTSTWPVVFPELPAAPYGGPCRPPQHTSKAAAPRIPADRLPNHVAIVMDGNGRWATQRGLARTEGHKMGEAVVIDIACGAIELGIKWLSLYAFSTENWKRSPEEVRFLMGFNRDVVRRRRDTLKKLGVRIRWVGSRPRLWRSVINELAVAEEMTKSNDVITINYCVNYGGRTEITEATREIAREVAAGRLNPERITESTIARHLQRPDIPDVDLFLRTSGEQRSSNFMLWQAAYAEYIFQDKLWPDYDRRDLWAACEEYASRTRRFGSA

[2] = system: Mycobacterium Smegmatis (ATCC 607); assay: Test B: Inhibition of Growth of the Bacterium M. Smegmatis; format: cell-based; conditions: grown in the presence of drug for 2 days, absorbance at 540 nm or CFU; result in words, data only in FIG. 3, versus Isoniazid
Description: Mycobacterium Smegmatis (ATCC 607) was obtained from American Type Culture Collection and cultured in 7H9 broth (Sigma) containing ADC (Sigma), 0.5% glycerol, and 0.05% Tween-80. Bacteria were grown to log phase and then diluted, aliquoted, and grown in the presence of indicated drugs for 2 days. Growth was measured as a function of optical absorbance at 540 nm using a spectrophotometer. Alternatively, aliquots of liquid cultures were spread onto agar containing plates, which were then grown for 2 days, after which the number of colony forming units (CFU) were counted and normalized per mL.

Row | Structure (SMILES) | inhibition of purified mycobacterial polyprenyl synthase (RV2361c) [1] | inhibition of growth of the bacterium M. Smegmatis [2]
1 | CC(C)=CCc1ccc(CC(P(=O)([O-])[O-])P(=O)([O-])[O-])cc1.[Na+].[Na+].[Na+].[Na+] [compound 13, p-Prenyl-phenethylidene bisphosphonic acid tetra sodium salt] | inhibition | 
2 | COC(=O)c1ccccc1NC/C(C)=C/CC/C(C)=C/CC(P(=O)(OCOC(=O)C(C)(C)C)OCOC(=O)C(C)(C)C)P(=O)(OCOC(=O)C(C)(C)C)OCOC(=O)C(C)(C)C [compound 24] |  | inhibition of growth

Source: patent US20100240612A1, “Prenylated Bisphosphonates as Anti-tuberculosis Agents” (priority 2009, published 2010)
